The text below walks through data of patent US20230295118A1 (EnhancedBio Inc., priority 2022, published 2023).

Structures are written as SMILES.

Type in all cases: cell-based
For experiment [1], the target named is T1, CDK6 (Homo sapiens, UniProt Q00534).
T1 construct: endogenous in cells
Briefly: CDK6 degradation (DC50, Dmax).

The test system of experiment [2] is mantle cell lymphoma cell (Mino or JeKo-1). Put plainly: Antiproliferative effect, MTS cell viability assay. The settings on record: 72 h; for IC50: mantle cell lymphoma cell (Mino or JeKo-1), MTS assay, read-out: IC50 (anti-proliferation); for inhibition of cell proliferation of Mino cells: 0-1 μM, result in words. In short, it runs like this:
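MTS read-out (formazan absorbance at 490 nm) after 72 h exposure of Mino cells to 0–1 μM compound (0.0001, 0.001, 0.01, 0.1, 1 μM). Palbociclib and abemaciclib served as positive controls.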
For orientation: Formazan colour is commonly taken as a measure of viable cells.

Experiment [3] concerns the target T2, CDK4 (Homo sapiens, UniProt P11802).
T2 construct: endogenous in cells
Briefly: CDK4 degradation (DC50, Dmax).

T2 sequence (P11802 whole entry): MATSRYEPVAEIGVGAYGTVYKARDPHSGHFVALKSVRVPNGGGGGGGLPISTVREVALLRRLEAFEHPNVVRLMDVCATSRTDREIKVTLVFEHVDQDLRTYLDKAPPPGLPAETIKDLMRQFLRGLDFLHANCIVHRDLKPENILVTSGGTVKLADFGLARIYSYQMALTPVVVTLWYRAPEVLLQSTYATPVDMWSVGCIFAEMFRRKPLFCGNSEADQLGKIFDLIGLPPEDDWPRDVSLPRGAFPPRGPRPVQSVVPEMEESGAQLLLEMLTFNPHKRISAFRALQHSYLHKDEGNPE
T1 sequence (Q00534 whole entry): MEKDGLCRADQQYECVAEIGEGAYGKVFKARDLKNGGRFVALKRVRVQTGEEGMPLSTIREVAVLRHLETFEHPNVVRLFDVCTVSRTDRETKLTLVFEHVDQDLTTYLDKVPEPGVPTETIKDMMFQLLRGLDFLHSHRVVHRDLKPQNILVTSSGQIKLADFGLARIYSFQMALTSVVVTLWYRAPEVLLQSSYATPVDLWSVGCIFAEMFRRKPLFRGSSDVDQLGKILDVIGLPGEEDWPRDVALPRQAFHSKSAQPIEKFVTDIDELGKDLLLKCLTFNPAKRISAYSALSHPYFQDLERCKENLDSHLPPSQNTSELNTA

In experiment [1], `CC(=O)c1c(C)c2cnc(Nc3ccc(N4CCN(CCCNc5cc6c(cc5F)C(=O)N(C5CCC(=O)NC5=O)C6)CC4)cn3)nc2n(C2CCCC2)c1=O` (stereo not drawn) [Compound 52, 3-(5-((3-(4-(6-((6-acetyl-8-cyclopentyl-5-methyl-7-oxo-7,8-dihydropyrido[2,3-d]pyrimidin-2-yl)amino)pyridin-3-yl)piperazin-1-yl)propyl)amino)-6-fluoro-1-oxoisoindolin-2-yl) piperidine-2,6-dione] came in with a DC50 of 50 to 200 nM and a Dmax of over 80%. Besides, in experiment [2], the IC50 is under 50 nM. In experiment [3], this compound yielded a DC50 of 50 to 200 nM and a Dmax of over 80%.

As for `CC(=O)c1c(C)c2cnc(Nc3ccc(N4CCN(CCCCNc5ccc6c(c5)C(=O)N(C5CCC(=O)NC5=O)C6=O)CC4)cn3)nc2n(C2CCCC2)c1=O` (stereo not drawn) [Compound 53, 5-((4-(4-(6-((6-acetyl-8-cyclopentyl-5-methyl-7-oxo-7,8-dihydropyrido[2,3-d]pyrimidin-2-yl)amino)pyridin-3-yl)piperazin-1-yl)butyl)amino)-2-(2,6-dioxopiperidin-3-yl)isoindoline-1,3-dione], the DC50 in experiment [1] and in experiment [3] was 50 to 200 nM in each case. The Dmax in experiment [1] is over 80%; in experiment [3] it was over 60%. In experiment [2], the IC50 is under 50 nM.

With `CC(=O)c1c(C)c2cnc(Nc3ccc(N4CCN(CCCCNc5ccc6c(c5)CN(C5CCC(=O)NC5=O)C6=O)CC4)cn3)nc2n(C2CCCC2)c1=O` (stereo not drawn) [Compound 54, 3-(5-((4-(4-(6-((6-acetyl-8-cyclopentyl-5-methyl-7-oxo-7,8-dihydropyrido[2,3-d]pyrimidin-2-yl)amino)pyridin-3-yl)piperazin-1-yl)butyl)amino)-1-oxoisoindolin-2-yl)piperidine-2,6-dione], the DC50 in experiment [1] and in experiment [3] was 50 to 200 nM each time. Further, the greatest degradation seen (Dmax) in experiment [1] and in experiment [3] was over 60% in each case. For the same compound, the IC50 in experiment [2] was under 50 nM.

For `CC(=O)c1c(C)c2cnc(Nc3ccc(N4CCN(CCN(C)c5ccc6c(c5)C(=O)N(C5CCC(=O)NC5=O)C6=O)CC4)cn3)nc2n(C2CCCC2)c1=O` (stereo not drawn) [Compound 55, 5-((2-(4-(6-((6-acetyl-8-cyclopentyl-5-methyl-7-oxo-7,8-dihydropyrido[2,3-d]pyrimidin-2-yl)amino)pyridin-3-yl)piperazin-1-yl)ethyl)(methyl)amino)-2-(2,6-dioxopiperidin-3-yl) isoindoline-1,3-dione], the DC50 in experiment [1] and in experiment [3] was 50 to 200 nM throughout. The Dmax in experiment [1] and in experiment [3] was over 60% each time. Further, in experiment [2], the IC50 lay in the range of 50 to 200 nM.

`CC(=O)c1c(C)c2cnc(Nc3ccc(N4CCN(CCN(C)c5ccc6c(c5)CN(C5CCC(=O)NC5=O)C6=O)CC4)cn3)nc2n(C2CCCC2)c1=O` (stereo not drawn) [Compound 56, 3-(5-((2-(4-(6-((6-acetyl-8-cyclopentyl-5-methyl-7-oxo-7,8-dihydropyrido[2,3-d]pyrimidin-2-yl)amino)pyridin-3-yl)piperazin-1-yl)ethyl)(methyl)amino)-1-oxoisoindolin-2-yl)piperidine-2,6-dione]: in experiment [1], the DC50 fell in the range of 50 to 200 nM and the greatest degradation seen (Dmax) is over 60%. Moreover, the IC50 in experiment [2] fell in the range of 50 to 200 nM. Besides, in experiment [3], the DC50 is 50 to 200 nM and the Dmax was over 60%.

In experiment [1], `CC(=O)c1c(C)c2cnc(Nc3ccc(N4CCN(CCCN(C)c5ccc6c(c5)C(=O)N(C5CCC(=O)NC5=O)C6=O)CC4)cn3)nc2n(C2CCCC2)c1=O` (stereo not drawn) [Compound 57, 5-((3-(4-(6-((6-acetyl-8-cyclopentyl-5-methyl-7-oxo-7,8-dihydropyrido[2,3-d]pyrimidin-2-yl)amino)pyridin-3-yl)piperazin-1-yl)propyl)(methyl)amino)-2-(2,6-dioxopiperidin-3-yl)isoindoline-1,3-dione] came in with a DC50 of 50 to 200 nM and a Dmax of over 60%. Further, the IC50 in experiment [2] lay in the range of 50 to 200 nM. In experiment [3], this compound registered a half-maximal degradation concentration (DC50) of 50 to 200 nM and a Dmax of over 60%.

As for `CC(=O)c1c(C)c2cnc(Nc3ccc(N4CCN(CCCN(C)c5ccc6c(c5)CN(C5CCC(=O)NC5=O)C6=O)CC4)cn3)nc2n(C2CCCC2)c1=O` (stereo not drawn) [Compound 58, 3-(5-((3-(4-(6-((6-acetyl-8-cyclopentyl-5-methyl-7-oxo-7,8-dihydropyrido[2,3-d]pyrimidin-2-yl)amino)pyridin-3-yl)piperazin-1-yl)propyl) (methyl)amino)-1-oxoisoindolin-2-yl) piperidine-2,6-dione], the half-maximal degradation concentration (DC50) in experiment [1] and in experiment [3] was 50 to 200 nM each time. The Dmax in experiment [1] and in experiment [3] was over 60% in each case. Moreover, the IC50 in experiment [2] lay within 50 to 200 nM.

Take `CC(=O)c1c(C)c2cnc(Nc3ccc(N4CCN(CCCCN(C)c5ccc6c(c5)C(=O)N(C5CCC(=O)NC5=O)C6=O)CC4)cn3)nc2n(C2CCCC2)c1=O` (stereo not drawn) [Compound 59, 5-((4-(4-(6-((6-acetyl-8-cyclopentyl-5-methyl-7-oxo-7,8-dihydropyrido[2,3-d]pyrimidin-2-yl)amino)pyridin-3-yl)piperazin-1-yl)butyl)(methyl)amino)-2-(2,6-dioxopiperidin-3-yl) isoindoline-1,3-dione]: the DC50 in experiment [1] and in experiment [3] was 50 to 200 nM throughout. In addition, the Dmax in experiment [1] and in experiment [3] was over 60% throughout. For the same compound, the IC50 in experiment [2] was 50 to 200 nM.

In experiment [1], `CC(=O)c1c(C)c2cnc(Nc3ccc(N4CCN(CCCCN(C)c5ccc6c(c5)CN(C5CCC(=O)NC5=O)C6=O)CC4)cn3)nc2n(C2CCCC2)c1=O` (stereo not drawn) [Compound 60, 3-(5-((4-(4-(6-((6-acetyl-8-cyclopentyl-5-methyl-7-oxo-7,8-dihydropyrido[2,3-d]pyrimidin-2-yl)amino)pyridin-3-yl)piperazin-1-yl)butyl)(methyl)amino)-1-oxoisoindolin-2-yl) piperidine-2,6-dione] showed a DC50 of 50 to 200 nM and a Dmax of over 60%. For the same compound, the IC50 in experiment [2] fell in the range of 50 to 200 nM. In experiment [3], the DC50 is 50 to 200 nM and the Dmax was over 60%.

In experiment [1], `CC(=O)c1c(C)c2cnc(Nc3ccc(N4CCN(CCN(C)c5cccc6c5C(=O)N(C5CCC(=O)NC5=O)C6=O)CC4)cn3)nc2n(C2CCCC2)c1=O` (stereo not drawn) [Compound 61, 4-((2-(4-(6-((6-acetyl-8-cyclopentyl-5-methyl-7-oxo-7,8-dihydropyrido[2,3-d]pyrimidin-2-yl)amino)pyridin-3-yl)piperazin-1-yl)ethyl)(methyl)amino)-2-(2,6-dioxopiperidin-3-yl) isoindoline-1,3-dione] displayed a DC50 of 50 to 200 nM and a Dmax of over 60%. Besides, the IC50 in experiment [2] lay in the range of 50 to 200 nM. In experiment [3], this compound registered a DC50 of 50 to 200 nM and a Dmax of over 60%.

Turning to `CC(=O)c1c(C)c2cnc(Nc3ccc(N4CCN(CCCNc5cccc6c5C(=O)N(C5CCC(=O)NC5=O)C6=O)CC4)cn3)nc2n(C2CCCC2)c1=O` (stereo not drawn) [Compound 62, 4-((3-(4-(6-((6-acetyl-8-cyclopentyl-5-methyl-7-oxo-7,8-dihydropyrido[2,3-d]pyrimidin-2-yl)amino)pyridin-3-yl)piperazin-1-yl)propyl)amino)-2-(2,6-dioxopiperidin-3-yl) isoindoline-1,3-dione], in experiment [1], the DC50 was in the range of 50 to 200 nM and the Dmax was over 80%. Also, the IC50 in experiment [2] is under 50 nM. In experiment [3], the DC50 is 50 to 200 nM and the Dmax is over 80%.

In experiment [1], `CC(=O)c1c(C)c2cnc(Nc3ccc(N4CCN(C5CCN(c6ccc7c(c6)C(=O)N(C6CCC(=O)NC6=O)C7=O)CC5)CC4)cn3)nc2n(C2CCCC2)c1=O` (stereo not drawn) [Compound 63, 5-(4-(4-(6-((6-acetyl-8-cyclopentyl-5-methyl-7-oxo-7,8-dihydropyrido[2,3-d]pyrimidin-2-yl)amino)pyridin-3-yl)piperazin-1-yl)piperidin-1-yl)-2-(2,6-dioxopiperidin-3-yl)isoindoline-1,3-dione] showed a DC50 of under 50 nM and a Dmax of over 80%. Further, in experiment [2], the IC50 was under 50 nM and the “inhibition of cell proliferation of Mino cells” value was “dose-dependent inhibition of cell proliferation”. In addition, in experiment [3], the DC50 lay within 50 to 200 nM and the Dmax is over 80%.

As to `CC(=O)c1c(C)c2cnc(Nc3ccc(N4CCN(C5CCN(c6ccc7c(c6)CN(C6CCC(=O)NC6=O)C7=O)CC5)CC4)cn3)nc2n(C2CCCC2)c1=O` (stereo not drawn) [Compound 64, 3-(5-(4-(4-(6-((6-acetyl-8-cyclopentyl-5-methyl-7-oxo-7,8-dihydropyrido[2,3-d]pyrimidin-2-yl)amino)pyridin-3-yl)piperazin-1-yl)piperidin-1-yl)-1-oxoisoindolin-2-yl)piperidine-2,6-dione], the DC50 in experiment [1] and in experiment [3] was 50 to 200 nM throughout. Moreover, the greatest degradation seen (Dmax) in experiment [1] and in experiment [3] was over 80% each time. In experiment [2], the IC50 is under 50 nM.

In experiment [1], `CC(=O)c1c(C)c2cnc(Nc3ccc(N4CCN(CC5CCN(c6ccc7c(c6)C(=O)N(C6CCC(=O)NC6=O)C7=O)CC5)CC4)cn3)nc2n(C2CCCC2)c1=O` (stereo not drawn) [Compound 65, 5-(4-((4-(6-((6-acetyl-8-cyclopentyl-5-methyl-7-oxo-7,8-dihydropyrido[2,3-d]pyrimidin-2-yl)amino)pyridin-3-yl)piperazin-1-yl)methyl)piperidin-1-yl)-2-(2,6-dioxopiperidin-3-yl) isoindoline-1,3-dione] showed a DC50 of under 50 nM and a Dmax of over 80%. In addition, in experiment [2], the IC50 is under 50 nM and the “inhibition of cell proliferation of Mino cells” value was “dose-dependent inhibition of cell proliferation”. Further, in experiment [3], the 50% degradation concentration (DC50) is under 50 nM and the Dmax was over 80%.

What is called DC50 is the concentration giving 50% degradation. A high value points to degradation only at high concentration. Broadly, the Dmax is the largest share of the target that was removed.
